The values below come from patent publication US20260347348A1, “JAK1/JAK2/TYK2 Inhibitors For Topical Treatment of Dermatological Diseases” (Hangzhou Highlightll Pharmaceutical Co., Ltd, priority 2022, published 2026).

Read-outs that look alike come from different tables or passages of the source.

A short description of data set [1]: Mini-pig dermal pharmacokinetic study. The format is in vivo, Guangxi Bama mini-pigs. Particulars: for AUC(0-t): 15 mg/cm^2, topical ointment. As to the method:
The aim of this study was to obtain the distribution of test articles in mini-pig after topical administration. Test articles were formulated as ointment and then applied to 2 female Guangxi Bama mini-pigs (8-12 kg) (Wujiang Tian yu Biological Technology). Briefly, total area estimated to be approximately 10% of the total body surface area were clipped free of hair before treatment using electric clippers. The test article was dosed evenly to the skin with 15 mg/cm^2 at 0 h, 8 h and 24 h. Test articles were removed before next dosing. Blood and skin samples were collected at 24 h (pre-dosing), 25 h, 28 h, 32 h, 48 h and 96 h. The blood was taken via peripheral vein of each animal into pre-chilled tube containing potassium (K2) EDTA as anticoagulant. Exposed skin was washed using ethanol and then wiped with dry cotton swab before skin sample collection. Eight samples of dosing skin were drilled with a biopsy punch (0.7 cm diameter) for each time point. Epidermis and dermis were separated and the eight samples from the same time point were pooled together and homogenized. All the above samples and homogenate were quantified by LC-MS/MS analysis.

Data set [2] is described as follows: Human liver microsome stability assay. In kind it is in vitro ADME. Particulars: liver microsomes. As to the method: The assay was conducted following procedures as below: • 1. Prepared 8 sample plates of 96-well plates, named as T0, T3, T6, T9, T15, T30, NCF30, BLANK. • 2. Dispensed 100 μl/well human microsomes to each plate. • 3. Dispensed 2 μL compound or control working solution/well to each plate (T0, T3, T6, T9, T15, T30, NCF30) except matrix blank and incubation plates at 37° C. for about 10 min. The final concentration of test compound was 1 μM. For T0, added 600 (μL/well) of cold stop solution immediately. • 4. Added 98 μL 100 mM potassium phosphate buffer/well to NCF30 plate, incubated at 37° C., start reaction. • 5. After pre-warming, dispensed NADPH regenerating system to 96-well plate as reservoir according to the plate map. Then added 98 μL/well to every plate (Blank, T30, T15, T9, T6, T3, T0) to start reaction. • 6. The reaction was stopped by the addition of 600 μl of cold stop solution at 0, 3, 6, 9, 15 and 30 minutes. Samples were shaked for 10 min and then centrifuged at 3220 g for 20 min. The supernatant was taken from each well and diluted with dilution solution before being analyzed by LC/MS/MS. • 7. […]
The slope value, k, was determined by linear regression of the natural logarithm of the remaining percentage of the parent drug vs. incubation time curve. The in vitro t1/2 was determined from the slope value: […]
(In general: Liver microsomes are vesicles of endoplasmic reticulum, rich in cytochrome P450 enzymes.)

For data set [3], the target named is T1, TYK2 (Homo sapiens, UniProt P29597). Put plainly: TYK2 cellular ELISA assay using NK92 cells (IL-12 and IL-18 stimulated IFNγ excretion). Particulars: IL-12 2 ng/ml and IL-18 5 ng/ml, 24 hours. The format is cell-based. As to the method:
Purpose: test cellular TYK2 activity using IL-12 and IL-18 stimulated IFNγ excretion assay in NK92 cells.
• 1. Replace NK92 cell media with IL-2 by media without IL-2, maintain overnight; • 2. Plate NK92 cells to 96-well plate at density of ~150,000 cell/well; • 3. Add different concentrations of test article to wells, maintain in incubator at 37° C. and 5% CO2 for 1 hour; • 4. Add IL-12 (final concentration: 2 ng/ml) and IL-18 (final concentration: 5 ng/ml) to stimulate for 24 hours in the above incubator; • 5. After 24 hours, centrifuge at 2000 rpm for 5 min, take the supernatant and analyze according to instructions of the ELISA kit.

Data set [4] has as its target T2, JAK1 (Homo sapiens, UniProt P23458). Nature of the data set: JAK1 cellular ELISA assay using PBMC cells (IL-6 stimulated STAT3 phosphorylation). The format is cell-based. Particulars: IL-6 100 ng/ml, 25 min. The method, then: Purpose: test cellular JAK1 activity using the IL-6 stimulated STAT3 phosphorylation assay in PBMC cells.
• 1. Plate PBMC cells to 96-well plate at density of ~300,000 cell/well; • 2. Add different concentrations of test article to wells, maintain in incubator at 37° C. and 5% CO2 for 1 hour; • 3. Add IL-6 (final concentration: 100 ng/ml) to stimulate for 25 min in the above incubator; • 4. After stimulation, transfer the suspension to 1.5 mL tube, centrifuge at 200 g for 5 min, collect cells, add 100 μL 1× lysate, lyse on ice for 1 hour; • 5. Centrifuge at 4° C. and 12000 rpm for 10 min, take the supernatant and analyze according to instructions of the ELISA kit.
A general note: ELISA stands for enzyme-linked immunosorbent assay.

Data set [5] has as its target T1, TYK2. Put plainly: TYK2 biochemical test (33P-ATP filter binding kinase assay). Particulars: room temperature, 2 hours. The method, then: (§1) The tests were conducted by Reaction Biology Corp, Malvern, PA (Anastassiadis et al. Nat Biotechnol. 2011; 29(11):1039-45). The step is briefly described as follows.
(§2) Basic reaction buffer: 20 mM Hepes (pH 7.5), 10 mM MgCl2, 1 mM EGTA, 0.02% Brij35, 0.02 mg/ml BSA, 0.1 mM Na3VO4, 2 mM DTT and 1% DMSO. The required cofactor was added to each kinase reaction respectively.
(§3) • 1. Preparing the designated substrate in the newly prepared basic reaction buffer; • 2. Transferring the required cofactor to the above matrix solution; • 3. Transferring the designated kinase to the substrate solution and mixing well slightly; • 4. Transferring a compound of formulae I-III in DMSO to the kinase reaction mixture with Acoustic technique (Echo550; nanoliter range), culturing for 20 minutes at room temperature; • 5. Introducing ^33P-ATP (specific activity: 10 μCi/μl) to the reaction mixture to trigger a reaction; • 6. Culturing at room temperature and conducting a kinase reaction for 2 hours; • 7. Plotting the reaction on P81 ion exchange paper; • 8. Testing the kinase activity with a filter binding assay.

In data set [6] the target is T2, JAK1. Nature of the data set: JAK1 biochemical test (33P-ATP filter binding kinase assay). Particulars: room temperature, 2 hours. As to the method: as §1, §2, §3
In data set [7] the test system is TYK2/JAK1/JAK2. Put plainly: TYK2/JAK1/JAK2 biochemical tests, comparative summary. As to the method:
as §1, §2, §3

Data set [8] concerns the target JAK2 (Homo sapiens, UniProt O60674). Nature of the data set: JAK2 biochemical test (33P-ATP filter binding kinase assay). Particulars: room temperature, 2 hours. The method, then:
as §1, §2, §3

Data set [9] concerns the target T3, JAK3 (Homo sapiens, UniProt P52333).
T3 sequence (P52333 1-1124): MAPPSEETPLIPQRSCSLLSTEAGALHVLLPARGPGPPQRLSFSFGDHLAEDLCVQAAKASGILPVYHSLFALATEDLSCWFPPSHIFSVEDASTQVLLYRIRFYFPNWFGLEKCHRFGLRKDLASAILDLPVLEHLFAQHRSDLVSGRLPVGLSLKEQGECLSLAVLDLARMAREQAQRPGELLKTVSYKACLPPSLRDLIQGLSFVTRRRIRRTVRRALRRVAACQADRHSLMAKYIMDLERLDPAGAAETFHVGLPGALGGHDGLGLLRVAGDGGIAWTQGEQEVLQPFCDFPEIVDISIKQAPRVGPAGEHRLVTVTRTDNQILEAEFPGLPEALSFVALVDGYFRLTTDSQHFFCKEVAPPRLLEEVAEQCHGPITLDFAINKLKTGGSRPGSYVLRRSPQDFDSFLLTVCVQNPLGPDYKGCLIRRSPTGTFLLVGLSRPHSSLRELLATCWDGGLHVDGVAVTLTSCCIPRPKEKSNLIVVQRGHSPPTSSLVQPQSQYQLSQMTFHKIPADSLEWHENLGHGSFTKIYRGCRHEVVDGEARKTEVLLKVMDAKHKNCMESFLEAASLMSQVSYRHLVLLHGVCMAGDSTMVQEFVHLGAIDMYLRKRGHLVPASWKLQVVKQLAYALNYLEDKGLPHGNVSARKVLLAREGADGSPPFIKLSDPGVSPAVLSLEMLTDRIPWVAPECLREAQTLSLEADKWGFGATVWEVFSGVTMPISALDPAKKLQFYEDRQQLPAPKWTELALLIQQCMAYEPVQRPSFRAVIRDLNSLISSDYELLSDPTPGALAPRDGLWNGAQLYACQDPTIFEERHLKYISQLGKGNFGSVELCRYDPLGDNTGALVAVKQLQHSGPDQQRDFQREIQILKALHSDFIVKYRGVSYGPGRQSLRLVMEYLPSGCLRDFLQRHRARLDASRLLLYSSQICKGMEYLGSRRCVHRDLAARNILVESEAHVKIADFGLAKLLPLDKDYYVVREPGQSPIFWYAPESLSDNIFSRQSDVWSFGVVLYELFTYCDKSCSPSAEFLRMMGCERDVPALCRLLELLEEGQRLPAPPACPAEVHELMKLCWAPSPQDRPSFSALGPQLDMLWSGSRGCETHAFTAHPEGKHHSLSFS
Nature of the data set: JAK3 biochemical test (33P-ATP filter binding kinase assay). Particulars: room temperature, 2 hours. As to the method: as §1, §2, §3

For data set [10] the following is noted: topical formulation, 1.2-37.6 g per application, twice a day; cited from earlier work.
For data set [11], the system named is psoriasis. Particulars: cited from earlier work.

T2 sequence (P23458 whole entry): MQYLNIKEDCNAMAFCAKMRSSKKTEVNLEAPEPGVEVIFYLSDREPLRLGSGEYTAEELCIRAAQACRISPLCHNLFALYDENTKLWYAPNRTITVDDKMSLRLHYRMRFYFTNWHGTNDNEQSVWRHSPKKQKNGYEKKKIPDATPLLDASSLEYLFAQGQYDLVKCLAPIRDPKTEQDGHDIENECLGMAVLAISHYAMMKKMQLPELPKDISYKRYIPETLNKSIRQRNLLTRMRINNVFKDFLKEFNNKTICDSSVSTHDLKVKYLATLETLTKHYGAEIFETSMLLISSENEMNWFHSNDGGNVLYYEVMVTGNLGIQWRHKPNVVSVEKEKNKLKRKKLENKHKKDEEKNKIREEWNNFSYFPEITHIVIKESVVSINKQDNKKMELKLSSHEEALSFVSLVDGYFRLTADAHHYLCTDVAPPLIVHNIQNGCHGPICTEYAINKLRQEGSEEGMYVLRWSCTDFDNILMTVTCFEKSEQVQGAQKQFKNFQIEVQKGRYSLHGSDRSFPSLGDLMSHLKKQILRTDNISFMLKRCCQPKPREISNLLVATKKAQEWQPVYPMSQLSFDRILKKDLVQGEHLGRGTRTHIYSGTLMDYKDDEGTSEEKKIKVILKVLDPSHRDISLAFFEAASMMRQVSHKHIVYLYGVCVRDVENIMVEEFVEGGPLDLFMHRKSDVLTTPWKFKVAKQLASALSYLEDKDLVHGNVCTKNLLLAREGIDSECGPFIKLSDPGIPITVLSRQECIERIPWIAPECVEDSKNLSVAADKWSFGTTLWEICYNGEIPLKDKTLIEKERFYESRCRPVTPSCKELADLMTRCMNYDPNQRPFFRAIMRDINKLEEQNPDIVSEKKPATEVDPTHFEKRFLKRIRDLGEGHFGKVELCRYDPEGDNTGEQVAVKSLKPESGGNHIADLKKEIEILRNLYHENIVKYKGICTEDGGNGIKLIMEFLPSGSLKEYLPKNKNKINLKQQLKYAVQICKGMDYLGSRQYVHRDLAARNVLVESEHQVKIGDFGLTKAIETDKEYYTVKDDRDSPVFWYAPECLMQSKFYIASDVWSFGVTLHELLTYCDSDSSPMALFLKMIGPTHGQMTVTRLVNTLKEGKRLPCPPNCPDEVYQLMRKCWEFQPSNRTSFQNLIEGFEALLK
T1 sequence (P29597 whole entry): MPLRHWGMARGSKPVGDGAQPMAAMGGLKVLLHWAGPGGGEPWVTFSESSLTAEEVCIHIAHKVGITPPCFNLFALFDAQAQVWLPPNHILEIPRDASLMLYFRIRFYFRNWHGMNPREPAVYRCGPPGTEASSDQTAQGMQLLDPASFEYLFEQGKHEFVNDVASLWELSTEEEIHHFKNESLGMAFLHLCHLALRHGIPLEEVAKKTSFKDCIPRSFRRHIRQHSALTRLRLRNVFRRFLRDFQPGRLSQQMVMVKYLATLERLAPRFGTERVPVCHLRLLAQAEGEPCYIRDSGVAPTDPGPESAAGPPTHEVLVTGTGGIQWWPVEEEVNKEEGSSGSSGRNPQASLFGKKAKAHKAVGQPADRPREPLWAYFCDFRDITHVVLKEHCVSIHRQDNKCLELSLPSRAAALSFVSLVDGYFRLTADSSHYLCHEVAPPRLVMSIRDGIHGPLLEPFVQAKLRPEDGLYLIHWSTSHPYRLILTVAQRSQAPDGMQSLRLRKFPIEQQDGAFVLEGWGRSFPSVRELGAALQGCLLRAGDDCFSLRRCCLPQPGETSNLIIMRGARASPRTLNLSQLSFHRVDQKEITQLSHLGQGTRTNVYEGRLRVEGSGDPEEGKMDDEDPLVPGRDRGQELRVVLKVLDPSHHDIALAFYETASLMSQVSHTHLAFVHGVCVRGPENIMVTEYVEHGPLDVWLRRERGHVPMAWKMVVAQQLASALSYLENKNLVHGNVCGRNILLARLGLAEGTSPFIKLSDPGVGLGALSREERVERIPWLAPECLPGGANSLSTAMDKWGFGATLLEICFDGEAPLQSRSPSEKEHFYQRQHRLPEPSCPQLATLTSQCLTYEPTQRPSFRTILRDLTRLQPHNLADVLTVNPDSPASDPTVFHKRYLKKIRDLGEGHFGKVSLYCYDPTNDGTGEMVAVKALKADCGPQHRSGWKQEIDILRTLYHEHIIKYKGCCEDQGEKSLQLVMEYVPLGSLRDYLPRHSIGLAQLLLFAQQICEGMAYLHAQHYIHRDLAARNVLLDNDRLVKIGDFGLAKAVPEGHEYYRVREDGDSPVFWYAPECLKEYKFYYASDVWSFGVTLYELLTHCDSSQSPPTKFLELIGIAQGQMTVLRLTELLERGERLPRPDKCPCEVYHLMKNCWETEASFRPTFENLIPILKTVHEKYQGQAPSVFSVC
JAK2, sequence (O60674 whole entry): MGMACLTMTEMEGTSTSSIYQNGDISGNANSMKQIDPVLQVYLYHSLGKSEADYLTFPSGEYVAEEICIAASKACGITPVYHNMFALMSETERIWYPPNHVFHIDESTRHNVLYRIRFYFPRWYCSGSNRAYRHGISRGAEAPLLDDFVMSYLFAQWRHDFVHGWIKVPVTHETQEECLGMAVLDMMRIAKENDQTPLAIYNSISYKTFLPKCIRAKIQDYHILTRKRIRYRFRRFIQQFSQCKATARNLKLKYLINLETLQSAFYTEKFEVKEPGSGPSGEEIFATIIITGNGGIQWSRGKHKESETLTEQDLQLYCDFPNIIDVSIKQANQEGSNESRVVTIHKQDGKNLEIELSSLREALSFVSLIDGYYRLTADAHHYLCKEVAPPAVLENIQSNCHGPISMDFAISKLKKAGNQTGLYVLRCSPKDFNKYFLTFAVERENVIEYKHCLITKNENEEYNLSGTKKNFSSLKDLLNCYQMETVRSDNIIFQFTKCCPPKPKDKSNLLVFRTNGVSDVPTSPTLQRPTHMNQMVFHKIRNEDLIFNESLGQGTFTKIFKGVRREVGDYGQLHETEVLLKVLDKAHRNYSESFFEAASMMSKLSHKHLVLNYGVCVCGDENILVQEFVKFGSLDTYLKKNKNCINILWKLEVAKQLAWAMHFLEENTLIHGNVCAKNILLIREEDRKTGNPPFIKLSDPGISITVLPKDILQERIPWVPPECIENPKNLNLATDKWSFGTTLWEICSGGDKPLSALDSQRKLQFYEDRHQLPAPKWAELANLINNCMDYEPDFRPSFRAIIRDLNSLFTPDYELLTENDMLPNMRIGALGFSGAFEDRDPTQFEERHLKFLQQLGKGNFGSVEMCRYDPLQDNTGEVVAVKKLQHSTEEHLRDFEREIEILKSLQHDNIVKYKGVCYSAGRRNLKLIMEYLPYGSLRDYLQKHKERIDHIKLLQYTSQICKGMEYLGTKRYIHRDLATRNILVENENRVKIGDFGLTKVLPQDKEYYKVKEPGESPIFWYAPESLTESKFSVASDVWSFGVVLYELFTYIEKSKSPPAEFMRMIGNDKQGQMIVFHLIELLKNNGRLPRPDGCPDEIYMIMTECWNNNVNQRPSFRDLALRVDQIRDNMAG

For `Cc1cnc(Nc2cnn(C)c2)nc1-c1cnn([C@H](CC#N)C2CCCC2)c1` [Compound 4, (R)-3-cyclopentyl-3-(4-(5-methyl-2-((1-methyl-1H-pyrazol-4-yl)amino)pyrimidin-4-yl)-1H-pyrazol-1-yl) propanenitrile], the AUC(0-t) is 0.103 µg·h/mL in data set [1] (minipig, plasma, topical or ocular, 15 mg/cm^2 at 0 h, 8 h and 24 h, plasma, read-out: Plasma AUC0-last); 517 µg·h/mL in data set [1] (minipig, topical or ocular, 15 mg/cm^2 at 0 h, 8 h and 24 h, dermis, read-out: Dermis AUC0-last); 3520 µg·h/mL in data set [1] (minipig, topical or ocular, 15 mg/cm^2 at 0 h, 8 h and 24 h, epidermis, read-out: Epidermis AUC0-last). Also, the Kp in [1] (minipig, topical or ocular, topical ointment, 15 mg/cm^2 at 0 h, 8 h and 24 h, read-out: Dermis/Plasma ratio (AUC)) was determined as 5020. The “systemic exposure and skin distribution (in words)” value in [1] (topical administration) was “minimal systemic exposure and enrichment in dermis and epidermis”. The half-life (commonly the time in which the quantity being followed falls by half) at 1 µM in [2] turned out to be 21 min. Further, in [2] (read-out: in vitro CLint(mic)), the microsomal CLint at 1 µM amounted to 65.9 µL/min/mg. In addition, the 50% inhibitory concentration (IC50) (in general, the concentration at which inhibition is half-maximal) in [3] was less than 10 nM; in data set [4] it was less than 500 nM; in data set [5] it was less than 1 nM; in [6], less than 1 nM. Also, in [7], the “TYK2/JAK1/JAK2 inhibition (in words)” value is “potent TYK2/JAK1/JAK2 inhibitors”.

With `CCS(=O)(=O)N1CC(CC#N)(n2cc(-c3nc(Nc4cnn(C)c4)ncc3C)cn2)C1` [Compound 18, 2-(1-(ethylsulfonyl)-3-(4-(5-methyl-2-((1-methyl-1H-pyrazol-4-yl)amino)pyrimidin-4-yl)-1H-pyrazol-1-yl)azetidin-3-yl)acetonitrile], the half-inhibitory concentration (IC50) in [4] was less than 500 nM; in data set [8], less than 1 nM; in [5] it was less than 1 nM; in [9], more than 10 nM; in [6] it was less than 1 nM. Moreover, the “TYK2/JAK1/JAK2 inhibition (in words)” value in data set [7] is reported as “potent TYK2/JAK1/JAK2 inhibitors”.

Take `N#CC[C@H](C1CCCC1)n1cc(-c2ncnc3[nH]ccc23)cn1` [ruxolitinib]: the Cmax (in general, the maximum level reached in the sampled fluid or tissue) in [10] was 449 ± 883 nM.

Consider `CNC(=O)c1nnc(NC(=O)C2CC2)cc1Nc1cccc(-c2ncn(C)n2)c1OC` [deucravacitinib], for which the “Phase 2 and Phase 3 results in patients with psoriasis” value in [11] was “positive Phase 2 and Phase 3 results”.
